Test results: the supplement of paper PMC10307832

Key:
Assay in all cases: relative viability (nuclei count vs DMSO), 5 days (fraction); higher = more cells survive
RU-SKI 43 + Navitoclax = compound: CC[C@@H](C)CNCC(=O)N1CCC2=C([C@@H]1COC3=CC=CC(=C3)C)C=CS2 [RU-SKI 43] + CC1(C)CCC(c2ccc(Cl)cc2)=C(CN2CCN(c3ccc(C(=O)NS(=O)(=O)c4ccc(N[C@H](CCN5CCOCC5)CSc5ccccc5)c(S(=O)(=O)C(F)(F)F)c4)cc3)CC2)C1 [Navitoclax] (partner 0.5 µM)
Summary of the method: (§1)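 Each reported value is a median over duplicate plates. It expresses relative viability: treated-well nuclei count divided by vehicle-well nuclei count. Lung cancer cell lines in 1536-well plates were dosed by pin tool a day after seeding, alone with one drug or with a fixed anchor-drug dose plus five library-drug doses (not always all listed) in √10 steps, and nuclei were counted after 5 days.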

MK-8033 + Alpelisib = compound: Cn1cc(-c2cnc3ccc4ccc(CS(=O)(=O)NCc5ccccn5)cc4c(=O)c3c2)cn1 [MK-8033] + Cc1nc(NC(=O)N2CCC[C@H]2C(N)=O)sc1-c1ccnc(C(C)(C)C(F)(F)F)c1 [Alpelisib] (partner 2 µM)
Summary of the method: as §1

MK-8033 + Tozasertib = compound: Cn1cc(-c2cnc3ccc4ccc(CS(=O)(=O)NCc5ccccn5)cc4c(=O)c3c2)cn1 [MK-8033] + Cc1cc(Nc2cc(N3CCN(C)CC3)nc(Sc3ccc(NC(=O)C4CC4)cc3)n2)n[nH]1 [Tozasertib] (partner 0.1 µM)
Summary of the method: as §1

MK-8033 + Navitoclax = compound: Cn1cc(-c2cnc3ccc4ccc(CS(=O)(=O)NCc5ccccn5)cc4c(=O)c3c2)cn1 [MK-8033] + CC1(C)CCC(c2ccc(Cl)cc2)=C(CN2CCN(c3ccc(C(=O)NS(=O)(=O)c4ccc(N[C@H](CCN5CCOCC5)CSc5ccccc5)c(S(=O)(=O)C(F)(F)F)c4)cc3)CC2)C1 [Navitoclax] (partner 0.5 µM)
Summary of the method: as §1

Cell Line | relative viability (RU-SKI 43 + Navitoclax; first compound 0.1 µM) | relative viability (RU-SKI 43 + Navitoclax; first compound 0.3162 µM) | relative viability (RU-SKI 43 + Navitoclax; first compound 1 µM) | relative viability (RU-SKI 43 + Navitoclax; first compound 3.162 µM) | relative viability (RU-SKI 43 + Navitoclax; first compound 10 µM) | relative viability (MK-8033 + Alpelisib; first compound 0.02 µM) | relative viability (MK-8033 + Alpelisib; first compound 0.06325 µM) | relative viability (MK-8033 + Alpelisib; first compound 0.2 µM) | relative viability (MK-8033 + Alpelisib; first compound 0.6325 µM) | relative viability (MK-8033 + Alpelisib; first compound 2 µM) | relative viability (MK-8033 + Tozasertib; first compound 0.02 µM) | relative viability (MK-8033 + Tozasertib; first compound 0.06325 µM) | relative viability (MK-8033 + Tozasertib; first compound 0.2 µM) | relative viability (MK-8033 + Tozasertib; first compound 0.6325 µM) | relative viability (MK-8033 + Tozasertib; first compound 2 µM) | relative viability (MK-8033 + Navitoclax; first compound 0.02 µM) | relative viability (MK-8033 + Navitoclax; first compound 0.06325 µM) | relative viability (MK-8033 + Navitoclax; first compound 0.2 µM) | relative viability (MK-8033 + Navitoclax; first compound 0.6325 µM) | relative viability (MK-8033 + Navitoclax; first compound 2 µM)
201T | 1.2 | 1.18 | 1.21 | 1.19 | 1.18 | 1.11 | 0.946 | 0.976 | 1.05 | 1.04 | 0.864 | 0.899 | 0.82 | 0.909 | 0.86 | 1.26 | 1.19 | 1.21 | 1.16 | 1.2
A549 | 1.24 | 1.51 | 1.17 | 1.23 | 1.08 | 0.692 | 0.685 | 0.83 | 0.456 | 0.651 | – | – | – | – | – | 1.22 | 1.13 | 1.16 | 1.19 | 1.14
A-427 | 0.944 | 0.868 | 0.997 | – | 0.961 | 1.05 | 1.07 | 1.03 | 1.16 | 1.11 | 0.225 | 0.213 | 0.209 | 0.17 | 0.194 | 0.967 | 0.869 | 0.891 | 0.912 | 0.868
ABC-1 | – | – | – | – | – | 1.12 | 1.12 | 1.15 | 1.04 | 1.08 | 0.207 | 0.123 | 0.155 | 0.174 | 0.154 | – | – | – | – | –
BEN | 0.0754 | 0.0554 | 0.064 | 0.0685 | 0.0709 | 0.914 | 0.89 | 1 | 1.08 | 1 | 0.544 | 0.491 | 0.461 | 0.492 | 0.545 | 0.067 | 0.0568 | 0.0526 | 0.0753 | 0.0791
CAL-12T | 1.2 | 1.53 | 1.54 | 1.13 | 1.14 | 1.08 | 1.08 | 1.08 | 1.25 | 1.06 | 0.317 | 0.29 | 0.28 | 0.311 | 0.266 | 1.19 | 1.2 | 1.15 | 0.92 | 1.28
COR-L23 | 0.971 | 0.628 | 1.11 | 1.04 | 1.07 | 0.71 | 0.864 | 0.74 | 0.828 | 0.645 | 0.198 | 0.187 | 0.164 | 0.164 | 0.117 | 0.938 | 0.88 | 0.948 | 1.01 | 0.885
COR-L 105 | 0.909 | 0.61 | 0.648 | 0.858 | 0.595 | 0.822 | 1.07 | 0.962 | 0.928 | 0.733 | 0.311 | 0.377 | 0.338 | 0.349 | 0.345 | 0.689 | 0.777 | 0.779 | 0.694 | 0.906
Calu-6 | 0.848 | 0.977 | 0.72 | 0.955 | 0.691 | 1.02 | 1.02 | 0.843 | 0.941 | 0.916 | – | – | – | – | – | 0.784 | 0.799 | 0.691 | 0.869 | 0.905
ChaGo-K-1 | 1.26 | 0.996 | 1.58 | 0.569 | 0.742 | – | – | – | – | – | 0.216 | 0.227 | 0.224 | 0.218 | 0.206 | 1.2 | 0.962 | 0.945 | 1.04 | 0.922
EBC-1 | 0.358 | 0.294 | 0.401 | 0.366 | 0.223 | 0.832 | 0.686 | 0.904 | 0.678 | 0.207 | – | – | – | – | – | 0.428 | 0.383 | 0.474 | 0.404 | 0.13
EKVX | 0.989 | 0.893 | 0.96 | 0.982 | 0.67 | 0.812 | 0.747 | 0.787 | 0.808 | 0.903 | 0.482 | 0.262 | 0.466 | 0.288 | 0.313 | 0.939 | 0.923 | 0.916 | 0.82 | 0.96
EMC-BAC-2 | 1.14 | 1.57 | 1.21 | 1.26 | 1.15 | 0.666 | 0.709 | 0.743 | 0.713 | 0.68 | 0.295 | 0.254 | 0.281 | 0.265 | 0.298 | 1.16 | 1.06 | 1.12 | 1.14 | 1.15
EPLC-272H | 1.17 | 1.12 | 1.03 | – | 1.13 | 0.91 | – | 0.877 | 0.948 | 1.02 | 0.27 | 0.214 | 0.279 | 0.32 | 0.152 | 1.12 | – | 1.07 | 0.853 | 1.08
H3255 | 0.489 | 0.396 | 0.598 | 0.5 | 0.237 | 0.643 | 0.571 | 0.562 | 0.695 | 0.608 | 0.581 | 0.501 | 0.554 | 0.609 | 0.602 | 0.577 | 0.446 | 0.441 | 0.418 | 0.485
HARA | 1.19 | 1.14 | 1.15 | 1.16 | 1.13 | 0.777 | 0.742 | 0.76 | 0.743 | 0.871 | 0.104 | 0.0979 | 0.111 | 0.136 | 0.112 | 1.1 | 1.14 | 1.15 | 1.1 | 1.16
HCC-15 | 0.769 | 0.81 | 0.715 | 0.757 | 0.735 | 0.847 | 0.947 | 0.863 | 0.841 | 0.875 | 0.498 | 0.3 | 0.35 | 0.427 | 0.352 | 0.744 | 0.706 | 0.679 | 0.668 | 0.668
